Structures can show the parent of a compound that is named as a salt.
What was measured:
[1] = tested on: [3H]-nitrendipine binding; settings: rank among the enantiomers, in words; cited from earlier work
[3H]-yohimbine binding = rank among the enantiomers, in words; cited from earlier work
[2] = in words; cited from earlier work
[3] = target: [3H]-Nitrendipine Binding in Rat Cortical Membranes; test: Inhibition of [3H]-Nitrendipine Binding in Rat Cortical Membranes; settings: rat cortex, room temperature, 90 min
Experimental: [3H]-Nitrendioine Bindino in Rat Cortex
Animals were decapitated and the cortical tissue was dissected, weighed and polytroned in about 20 volumes (w/v) of ice cold buffer ([…] TRIS HCl, pH 7.5). The tissue was then washed 3 times via centrifugation (20,000 rpm for 10 min at 4° C.) with subsequent resuspension in fresh buffer. The final pellet was resuspended prior to the assay at 22.5 mg/mL […]. Incubations were performed at room temperature for 90 min in each assay. These incubations were done in triplicate in a final assay volume of 2.0 mL. Non-specific binding was determined by the addition of 1 uM nifedipine for the [3H]-nitrendipine assay each to triplicate set of tubes. Reactions in each assay were terminated by filtration using a Brandel Cell Harvester followed by washing with ice cold buffer.
For preliminary evaluations in each assay, all compounds were examined at four log concentrations (1 nM-1 uM). full displacement curves were generated on all compounds showing inhibition of specific binding of 50% or greater at a 1 uM drug concentration. Standard reference compounds were included and evaluated in each assay. Analysis of data was done using both the EBDA Scafit program and HP-11C linear regression.

Guinea Pig Ileum = target: T1, Guinea Pig Ileum (Cavia porcellus, UniProt O35505); test: Calcium Channel Antagonist Activity in Guinea Pig Isolated Ileal Smooth Muscle (inhibition of Ca++ evoked contractions); settings: concentration producing a two-fold rightward shift in the control Ca++ curve; KCl-depolarized (80 mM) longitudinal smooth muscle
T1 construct: The longitudinal smooth muscle is carefully separated from the underlying circular muscle layer; from tissue; host or cells: guinea pig ileum (terminal 10 cm discarded), isolated longitudinal smooth muscle
T1 sequence (O35505 whole entry): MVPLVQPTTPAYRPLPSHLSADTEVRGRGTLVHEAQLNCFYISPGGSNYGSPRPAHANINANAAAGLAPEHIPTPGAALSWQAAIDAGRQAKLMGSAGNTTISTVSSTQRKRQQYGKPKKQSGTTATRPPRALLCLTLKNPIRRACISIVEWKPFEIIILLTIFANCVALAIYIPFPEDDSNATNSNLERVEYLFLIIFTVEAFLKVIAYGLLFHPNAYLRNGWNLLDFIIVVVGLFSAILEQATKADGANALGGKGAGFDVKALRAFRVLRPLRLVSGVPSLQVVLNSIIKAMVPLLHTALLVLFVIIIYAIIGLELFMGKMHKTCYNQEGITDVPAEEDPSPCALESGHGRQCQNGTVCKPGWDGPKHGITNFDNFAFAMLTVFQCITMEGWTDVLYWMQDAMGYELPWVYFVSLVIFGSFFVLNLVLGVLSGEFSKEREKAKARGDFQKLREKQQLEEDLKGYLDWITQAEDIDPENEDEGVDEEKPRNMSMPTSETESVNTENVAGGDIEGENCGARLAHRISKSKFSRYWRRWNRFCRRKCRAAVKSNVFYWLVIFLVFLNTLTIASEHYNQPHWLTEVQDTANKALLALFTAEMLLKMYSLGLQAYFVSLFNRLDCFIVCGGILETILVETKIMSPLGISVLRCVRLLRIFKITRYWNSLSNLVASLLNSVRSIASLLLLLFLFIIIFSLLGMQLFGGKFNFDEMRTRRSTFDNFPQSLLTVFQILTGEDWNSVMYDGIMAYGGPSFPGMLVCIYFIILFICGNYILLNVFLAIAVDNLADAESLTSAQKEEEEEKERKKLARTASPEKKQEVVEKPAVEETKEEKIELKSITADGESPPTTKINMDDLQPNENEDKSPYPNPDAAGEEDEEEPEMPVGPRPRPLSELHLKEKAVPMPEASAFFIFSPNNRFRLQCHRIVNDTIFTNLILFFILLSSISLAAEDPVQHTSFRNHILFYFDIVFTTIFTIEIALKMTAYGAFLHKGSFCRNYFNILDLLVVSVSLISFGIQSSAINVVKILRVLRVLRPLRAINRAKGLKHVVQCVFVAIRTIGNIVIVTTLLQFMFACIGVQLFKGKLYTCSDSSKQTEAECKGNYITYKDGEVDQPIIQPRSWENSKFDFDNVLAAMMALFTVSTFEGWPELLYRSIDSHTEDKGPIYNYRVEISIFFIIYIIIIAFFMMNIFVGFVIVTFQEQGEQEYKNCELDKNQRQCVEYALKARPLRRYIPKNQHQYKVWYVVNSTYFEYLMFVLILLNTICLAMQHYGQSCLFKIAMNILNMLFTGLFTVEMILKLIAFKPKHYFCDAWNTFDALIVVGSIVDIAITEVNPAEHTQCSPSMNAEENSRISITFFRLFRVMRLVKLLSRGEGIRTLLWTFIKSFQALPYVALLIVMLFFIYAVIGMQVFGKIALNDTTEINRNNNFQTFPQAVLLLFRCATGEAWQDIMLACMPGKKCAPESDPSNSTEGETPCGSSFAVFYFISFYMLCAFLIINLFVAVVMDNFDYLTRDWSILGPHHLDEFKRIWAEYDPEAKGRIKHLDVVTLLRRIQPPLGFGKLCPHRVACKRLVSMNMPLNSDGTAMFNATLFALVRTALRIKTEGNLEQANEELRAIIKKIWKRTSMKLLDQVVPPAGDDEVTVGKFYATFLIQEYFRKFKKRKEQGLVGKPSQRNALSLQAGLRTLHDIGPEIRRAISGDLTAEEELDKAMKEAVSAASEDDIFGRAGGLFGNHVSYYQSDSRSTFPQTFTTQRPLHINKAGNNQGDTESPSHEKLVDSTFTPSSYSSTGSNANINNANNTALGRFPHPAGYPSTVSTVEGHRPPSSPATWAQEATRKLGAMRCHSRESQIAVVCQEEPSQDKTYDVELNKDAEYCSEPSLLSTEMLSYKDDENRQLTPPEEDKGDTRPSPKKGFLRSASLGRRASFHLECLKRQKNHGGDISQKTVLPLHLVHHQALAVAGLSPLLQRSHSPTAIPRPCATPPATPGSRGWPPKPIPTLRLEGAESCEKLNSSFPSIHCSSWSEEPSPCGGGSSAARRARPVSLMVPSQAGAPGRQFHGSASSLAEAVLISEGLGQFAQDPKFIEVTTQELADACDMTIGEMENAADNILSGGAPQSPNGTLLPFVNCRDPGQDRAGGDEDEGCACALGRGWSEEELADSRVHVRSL
From the text: Calcium Channel Antagonist Activity in Guinea Pig Isolated Ileal Smooth Muscle
Male albino guinea pigs are sacrificed by stunning and exsanguination. The abdominal cavity is opened and the small intestine is removed, with about 10 cm of the terminal ileum being discarded. The tissue is placed in a dish containing Tyrode's solution of the following composition (in mM): NaCl 136.90; KCl 2.68; NaHCO3 11.90; NaH2 PO4 0.36; MgCl2 0.98; CaCl2 1.77; dextrose 5.55 and cut into three to four segments. A glass rod (6 mm diameter) is carefully inserted into the lumen of each segment and excess connective tissue or fat is removed. The longitudinal smooth muscle is carefully separated from the underlying circular muscle layer by gently stroking a moist cotton swab on a tangent to shallow, longitudinal incisions made parallel to the mesenteric attachment. Using gentle traction, and taking care to keep the segment moist at all times, the preparation is stripped from the remaining length of the ileal segment (Paton, W. D. M.; Zar, M. A.; J. Physiol. 1968, 194, 13.)
Each preparation is suspended in a 10 mL jacketed glass tissue bath containing Tyrode's solution maintained at 37° C. and gassed with 5% CO2 in O2. The preparation is attached by silk thread to a force-displacement transducer. […] The initial resting tension is adjusted to 0.5 g and the preparation equilibrated for 55 min prior to experimentation. At the end of this period, the bathing solution is replaced with Ca^++ free Tyrode's solution. This solution is prepared by omitting CaCl2. The preparation is washed four times in Ca^++ free Tyrode's solution to remove any Ca^++ remaining in the bath, and allowed to equilibrate for a further 20 min.
Experimental Protocol. Concentration-response curves to CaCl2 are obtained using the following procedure. Preparations are exposed to a depolarizing concentration of KCl (80 mM) for 6 min. At the end of this period CaCl2 is added to the bath cumulatively in the concentration range 0.2-8.0 mM. Successive additions of each Ca^++ concentration are carried out only when the previous response has reached a plateau. When the maximum response has been attained the bath is again washed (five times) with Ca^++ free buffer, and the preparation re-equilibrated for approximately 15 min. A second Ca^++ concentration-response curve is then obtained in the same manner. This second curve serves as control for that tissue.
Further curves are obtained in the presence of increasing concentrations of the test drugs. Where appropriate, the test drug is added to the bath immediately following addition of KCl, and 6 minutes later the concentration-response curve to Ca^++ is obtained. Each test preparation is exposed to three different concentrations of a test drug. […]

[4] = tested on: spontaneously hypertensive rats; settings: rank among the enantiomers, in words; cited from earlier work

For `COC(=O)C1=C(C)NC(C)=C(C(=O)OCCN(C)C[C@@H]2COc3ccccc3O2)[C@@H]1c1cccc([N+](=O)[O-])c1` [2-[N-methyl-N-[(2,3-dihydro-1,4-benzodioxin-2-yl)methyl]amino]ethyl methyl 2,6-dimethyl-4-(3-nitrophenyl)-1,4-dihydropyridine-3,5-dicarboxylate], the “inhibition of [3H]-nitrendipine binding” value [1] is listed as “most potent”.
In the case of `COC(=O)C1=C(C)NC(C)=C(C(=O)OCCN(C)C[C@H]2COc3ccccc3O2)[C@H]1c1cccc([N+](=O)[O-])c1` [2-[N-methyl-N-[(2,3-dihydro-1,4-benzodioxin-2-yl)methyl]amino]ethyl methyl 2,6-dimethyl-4-(3-nitrophenyl)-1,4-dihydropyridine-3,5-dicarboxylate], the “inhibition of [3H]-yohimbine binding” value ([3H]-yohimbine binding) is listed as “most potent”.
For `COC(=O)C1=C(C)NC(C)=C(C(=O)OC(C)C)[C@@H]1c1cccc2nonc12` [(R)-enantiomer of PN 200-110, isopropyl methyl 4-(2,1,3-benzoxadiazol-4-yl) -1,4-dihydro-2,6-dimethyl-3,5-pyridinedicarboxylate], the “blood flow to the heart and brain” value [2] is given as “increased”, the cardiac output [2] is given as “increased” and the “effect on blood pressure” value [2] is given as “almost no effect”. For the same molecule, the “effect on heart rate” value [2] was “almost no effect” and the “potency in the subendocardium of the left ventricle” value [2] was “surprisingly potent”.
Molecule `COC(=O)C1=C(C)NC(C)=C(C(=O)O[C@H]2CN3CCC2CC3)[C@@H]1c1cccc([N+](=O)[O-])c1` [(R,R)-I, (R,R)-1-Azabicyclo[2.2.2]oct-3-yl methyl 1,4-dihydro-2,6-dimethyl-4-(3-nitrophenyl)-3,5-pyridinedicarboxylate] has a Ki [3] of 11 nM and a Kb (Guinea Pig Ileum) of 34 nM.
In the case of `COC(=O)C1=C(C)NC(C)=C(C(=O)O[C@H]2CN3CCC2CC3)[C@H]1c1cccc([N+](=O)[O-])c1` [(R,S)-I, (R,S)-1-Azabicyclo[2.2.2]oct-3-yl methyl 1,4-dihydro-2,6-dimethyl-4-(3-nitrophenyl)3,5-pyridinedicarboxylate], the Ki [3] is reported as 56 nM and the Kb (Guinea Pig Ileum) is reported as 174 nM.
In the case of `COC(=O)C1=C(C)NC(C)=C(C(=O)OC(C)C)[C@H]1c1cccc2nonc12` [(S)-enantiomer of PN 200-110, isopropyl methyl 4-(2,1,3-benzoxadiazol-4-yl) -1,4-dihydro-2,6-dimethyl-3,5-pyridinedicarboxylate], the “blood flow to the heart and brain” value [2] is listed as “increased”, the cardiac output [2] is listed as “increased” and the “effect on blood pressure” value [2] is listed as “lowered”. The “effect on heart rate” value [2] was “lowered”.
`COC(=O)C1=C(C)NC(C)=C(C(=O)O[C@H]2CN3CCC2CC3)[C@H]1c1cccc([N+](=O)[O-])c1` [(S,R)-I, (S,R)-1-azabicyclo[2.2.2]oct-3-yl methyl 1,4-dihydro-2,6-dimethyl-4-(3-nitrophenyl)-3,5pyridinedicarboxylate, hydrochloride] gave a Kb (Guinea Pig Ileum) of 3160 nM.
In the case of `COC(=O)C1=C(C)NC(C)=C(C(=O)O[C@@H]2CN3CCC2CC3)[C@H]1c1cccc([N+](=O)[O-])c1` [(S,S)-I, (S,S)-1-Azabicyclo[2.2.2]oct-3-yl methyl 1,4-dihydro-2,6-dimethyl-4-(3-nitrophenyl)-3,5-pyridinedicarboxylate], the Kb (Guinea Pig Ileum) is reported as 1620 nM.
In the case of `COC(=O)C1=C(C)NC(C)=C(C(=O)O[C@H]2CCCN(Cc3ccccc3)C2)[C@H]1c1cccc([N+](=O)[O-])c1` [(S,S)-enantiomer of 1-benzyl-3-piperidinyl ester], the “Ca++ channel blocking activity as determined by lowering of blood pressure in spontaneously hypertensive rats” value [4] is listed as “greatest”.
For `COC(=O)C1=C(C)NC(C)=C(C(=O)O[C@H]2CCN(Cc3ccccc3)C2)[C@H]1c1cccc([N+](=O)[O-])c1` [(S,S)-enantiomer of 1-benzyl-3-pyrrolidinyl ester], the “Ca++ channel blocking activity as determined by inhibition of [3H]-nitrendipine binding” value [1] is listed as “greatest”.
